The record followed here is ChEMBL document CHEMBL1201862, “PubChem BioAssay data set” (2004).

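Step 1: Grow cells in 96-well plates. Step 2: Expose to compound for 48 hours at 5 concentrations. Step 3: Interpolate endpoints linearly; if unreached, use highest concentration. Abbreviation: GI50, concentration required for 50% inhibition of growth.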 Active and inactive are the calls of the source. Cut-off read from the data, not from the text of the source: active = GI50 up to about 1.1 µM and inactive = higher.

Assay in all cases: NCI-60 cell line screen, 48 h
The test system of test [1] is DLD-1.
The subject of test [2] is COLO 205.
In test [3] the test system is Malme-3M.
Test [4] relates to KM12.
In test [5] the test system is TK-10.
Test [6] relates to UACC-257.
Test [7] deals with SK-OV-3.
Test [8] deals with SW-620.
In test [9] the test system is KM-20L2.
For test [10], the system named is SF-539.
Test [11] relates to OVCAR-5.
In test [12] the test system is NCI-H23.
Test [13] relates to MOLT-4.
The test system of test [14] is RPMI-8226.
For test [15], the system named is CCRF-CEM.
Test [16] deals with SR.
For test [17], the system named is SK-MEL-2.
For test [18], the system named is HCT-15.
In test [19] the test system is BT-549.
Test [20] deals with Hs-578T.

Turning to `COc1nc(NC2OC(COC(C)=O)C(OC(C)=O)C(OC(C)=O)C2OC(C)=O)c(/N=C/C=N/c2c(NC3OC(COC(C)=O)C(OC(C)=O)C(OC(C)=O)C3OC(C)=O)nc(OC)[nH]c2=O)c(=O)[nH]1` (stereo unspecified), the GI50 in test [1], in test [2], in test [3], in [4], in test [5] and in [6] was > 100 µM (inactive) each time. In addition, the GI50 in test [7], in test [8], in test [9], in test [10], in [11] and in [12] was > 100 µM (inactive) in each case. In addition, the GI50 in test [13], in test [14] and in test [15] was > 100 µM (inactive) in each case.
Regarding `Cc1cc(C)nc(NS(=O)(=O)c2ccc(NC(=O)c3ccc(Cl)c4c(Nc5ccc(S(=O)(=O)Nc6cc(C)on6)cc5)c5ccccc5nc34)cc2)n1`, the GI50 was 16 µM (inactive) in test [1]; 18.1 µM (inactive) in test [2]; 20.9 µM (inactive) in [3]; 18.4 µM (inactive) in [4]; 18.3 µM (inactive) in test [5]; 18.2 µM (inactive) in test [6]. The GI50 was 19.4 µM (inactive) in test [7]; 17.3 µM (inactive) in test [8]; 18.5 µM (inactive) in test [9]; 18.7 µM (inactive) in test [10]; 21 µM (inactive) in [11]; 14.5 µM (inactive) in test [12]. The values for the GI50 in [13] and in [14] were 22.9 µM (inactive) and 17.9 µM (inactive), respectively.
Turning to `CC(=O)NNc1nc(C)c(C(=O)NNC(=O)C(=O)Nc2c(Cl)cc([N+](=O)[O-])cc2Cl)s1`, the GI50 in [16] is 30.5 µM (inactive); in [2], 36.3 µM (inactive); in test [3], 36.1 µM (inactive); in [4] it was 40 µM (inactive); in test [17] it was 43.5 µM (inactive); in test [5], 41.4 µM (inactive). For the same compound, the GI50 in [6] is 26.6 µM (inactive); in test [7], 48.5 µM (inactive); in test [8], 24.5 µM (inactive); in test [9], 31.9 µM (inactive); in test [10], 24.2 µM (inactive); in test [18], 40.4 µM. Moreover, the GI50 is 27.2 µM (inactive) in [11]; 18.9 µM (inactive) in test [12]; 30.4 µM (inactive) in test [13]; 44.7 µM (inactive) in test [14]; 31.8 µM (inactive) in test [15].
Take `CCN1c2ccccc2C(C(SC)S(=O)(=O)c2ccc(C)cc2)c2c1[nH]c(=O)n(C)c2=O` (stereo unspecified): the GI50 was > 100 µM (inactive) in [1]; > 100 µM (inactive) in test [2]; 88.1 µM (inactive) in test [3]; > 100 µM (inactive) in test [4]; 71.1 µM (inactive) in test [17]; > 100 µM (inactive) in test [5]. Besides, the GI50 in [6] was > 100 µM (inactive); in test [7] it was > 100 µM (inactive); in [8], > 100 µM (inactive); in test [10], > 100 µM (inactive); in [18], more than 100 µM; in test [11] it was > 100 µM (inactive). Besides, the GI50 in [12] is > 100 µM (inactive); in test [13] it was 94 µM (inactive); in [14], > 100 µM (inactive); in test [15] it was > 100 µM (inactive).
As for `O=C(CC(=O)C(=O)Nc1ccccc1)CC(c1ccccc1)c1c(O)c2ccccc2oc1=O` (stereo unspecified), the GI50 in [1], in [2], in test [3], in test [4], in [17] and in test [5] was > 100 µM (inactive) each time. The GI50 is > 100 µM (inactive) in test [7]; > 100 µM (inactive) in test [8]; > 100 µM (inactive) in [9]; > 100 µM (inactive) in test [10]; more than 100 µM in [18]; > 100 µM (inactive) in test [11]. In addition, the GI50 in [13] and in [15] was > 100 µM (inactive) throughout.
With `O=C(NCCCCCCNC(=O)NC1OCC(O)C(O)C1O)NC1OCC(O)C(O)C1O` (stereo unspecified), the GI50 in [16], in test [1], in test [2], in test [3], in test [4] and in test [17] was > 100 µM (inactive) in each case. In addition, the GI50 in [5] was > 100 µM (inactive); in test [7] it was > 100 µM (inactive); in test [8], > 100 µM (inactive); in [10] it was > 100 µM (inactive); in test [18], more than 100 µM; in [11], > 100 µM (inactive). The GI50 in test [12], in test [13], in test [14] and in test [15] was > 100 µM (inactive) throughout.
With `N#Cc1ccc(Sc2nc3ccccc3[nH]2)cc1`, the GI50 in [16], in [1], in [2], in [3], in [4] and in test [17] was > 100 µM (inactive) in each case. Also, the GI50 in test [5] was > 100 µM (inactive); in test [6], > 100 µM (inactive); in [7], > 100 µM (inactive); in [8], > 100 µM (inactive); in [10], > 100 µM (inactive); in test [11], 42.8 µM (inactive). The GI50 in test [12] is > 100 µM (inactive); in test [13], 94 µM (inactive); in [15], > 100 µM (inactive).
`ClCCC[Si]12OCCN(CCO1)CCO2`: the GI50 in test [16], in test [1], in test [2], in test [3], in test [4] and in test [17] was > 100 µM (inactive) each time. The GI50 in [5], in [6], in test [7], in test [8], in test [10] and in test [11] was > 100 µM (inactive) throughout. For the same compound, the GI50 in [12], in [13], in test [14] and in test [15] was > 100 µM (inactive) throughout.
With `C=C1C(OC(=O)/C=C/c2ccccc2)CC(OC(C)=O)C2(C)C1CC1CC(OC(C)=O)C(C)=C(C(OC(C)=O)C2OC(C)=O)C1(C)C` (stereo unspecified), the GI50 was 3.97 µM (inactive) in test [16]; 34 µM (inactive) in test [2]; > 100 µM (inactive) in [3]; 8.59 µM (inactive) in test [4]; > 100 µM (inactive) in test [5]; > 100 µM (inactive) in test [7]. Further, the GI50 in [8] is > 100 µM (inactive); in [9] it was > 100 µM (inactive); in test [10], > 100 µM (inactive); in test [18], 5.41 µM; in test [11], > 100 µM (inactive); in [13], 4.61 µM (inactive). Moreover, the GI50 was 3.13 µM (inactive) in [14] and 5.25 µM (inactive) in [15].
Turning to `CCc1cccc(C(C)C)c1NC(=O)C(=O)CC(=O)c1c(C)[n+]([O-])c2ccccc2[n+]1[O-]`, the GI50 in test [1], in [2], in test [3], in test [17], in test [5] and in test [7] was > 100 µM (inactive) each time. Further, the GI50 was > 100 µM (inactive) in test [8]; > 100 µM (inactive) in test [9]; > 100 µM (inactive) in test [10]; more than 100 µM in [18]; > 100 µM (inactive) in [11]; > 100 µM (inactive) in test [12]. The figures for the GI50 in test [13], in test [14] and in [15] were 56.1 µM (inactive), 30.1 µM (inactive) and > 100 µM (inactive), respectively.
Regarding `Oc1ccccc1/C=N/c1nc2cc3sc(/N=C/c4ccccc4O)nc3cc2s1`, the GI50 in test [16] is 2.63 µM (inactive); in test [2], 3.3 µM (inactive); in test [3], > 100 µM (inactive); in test [4], > 66.8 µM (inactive); in [17], > 100 µM (inactive); in test [5] it was > 86.9 µM (inactive). Moreover, the GI50 is > 100 µM (inactive) in test [6]; > 89.3 µM (inactive) in test [7]; 20.7 µM (inactive) in test [8]; > 61.8 µM (inactive) in test [19]; 21.5 µM (inactive) in test [20]; > 85.5 µM (inactive) in test [10]. The GI50 in test [18] is 19.2 µM; in [11] it was > 64.7 µM (inactive); in test [12] it was 6.21 µM (inactive); in test [13], 0.889 µM (active); in test [14], > 35.3 µM (inactive); in test [15], 4.74 µM (inactive).
Take `O=c1[nH]c(=O)n(C2CC(O)C(CO)O2)cc1OS(=O)(=O)C(F)(F)F` (stereo unspecified): the GI50 in [1], in test [2], in [3], in test [4], in [17] and in [5] was > 100 µM (inactive) each time. The GI50 in test [7] was > 100 µM (inactive); in [8], > 100 µM (inactive); in test [9], > 100 µM (inactive); in test [10] it was > 100 µM (inactive); in [18], more than 100 µM; in [11], > 100 µM (inactive). For the same compound, the GI50 in [12], in [13], in test [14] and in test [15] was > 100 µM (inactive) in each case.
